10 molecules from US20170015654A1, “PYRIDAZINE COMPOUND” (TAKEDA PHARMACEUTICAL COMPANY LIMITED, priority 2014, published 2017) can be followed below.

Test [1] has as its target T1, SCD (Rattus norvegicus, UniProt P07308).
T1 construct: the obtained precipitate other than the glycogen layer was used as the microsome fraction; from tissue; host or cells: rat liver microsome fraction
T1 sequence (P07308 1-358): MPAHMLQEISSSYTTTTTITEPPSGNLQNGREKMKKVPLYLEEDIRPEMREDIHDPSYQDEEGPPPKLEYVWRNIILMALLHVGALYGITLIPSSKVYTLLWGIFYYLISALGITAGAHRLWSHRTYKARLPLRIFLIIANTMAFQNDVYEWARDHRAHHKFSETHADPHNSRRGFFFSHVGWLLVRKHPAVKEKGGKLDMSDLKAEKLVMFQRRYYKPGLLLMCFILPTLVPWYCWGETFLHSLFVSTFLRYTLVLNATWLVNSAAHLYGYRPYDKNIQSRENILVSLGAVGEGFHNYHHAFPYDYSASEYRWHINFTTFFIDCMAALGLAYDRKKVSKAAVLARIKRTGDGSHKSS
Briefly: Measurement of SCD inhibitory activity using microsome (TLC detection system). As to conditions: 1 μM compound; rat liver microsome fraction; [14C]stearoyl-CoA; read-out: Rate of inhibition of SCD activity at compound concentration of 1 μM. Format: biochemical. As for the experimental part: Testing Method: Measurement of SCD Inhibitory Activity Using Microsome (TLC Detection System)
A microsome fraction was produced and preserved as follows: first, the liver was excised from a rat, thoroughly washed with PBS and then chopped. A microsome preparation buffer (0.25 M sucrose, 10 mM Tris-HCl, pH 7.4, protease inhibitor cocktail (F. Hoffmann-La Roche, Ltd.)) was added to the chopped liver, and the cells were disrupted using a POLYTORON homogenizer on ice. The homogenate thus obtained by the disruption was centrifuged at 10,000×g at 4° C. for 30 minutes to collect a supernatant. The centrifugation operation described above was repeated again for the obtained supernatant to obtain a supernatant again. The obtained supernatant was centrifuged at 40,000×g at 4° C. for 60 minutes, and the obtained precipitate other than the glycogen layer was used as the microsome fraction. The protein concentration of the microsome fraction was measured using BCA Protein Assay Kit (Pierce/Thermo Fisher Scientific, Inc.), and the microsome fraction was cryopreserved at −80° C. until use.
The SCD inhibitory activity of each test compound was measured as follows: first, the test compound was diluted into 10 mM with DMSO to obtain a primary dilution. The obtained primary dilution was diluted 3/1000 by the addition of 3× buffer (300 mM potassium phosphate, pH 7.4, 450 mM KCl, 30 mM NaF, 9 mM MgCl2, 4.5 mM glutathione reduced form (Wako Pure Chemical Industries, Ltd.), 0.3% BSA fatty acid free (Sigma-Aldrich Corp.) to obtain a secondary dilution. The secondary dilution was dispensed at 10 μL/well to a polypropylene 96-deep well block. Then, the microsome fraction diluted using a microsome buffer (10 mM Tris-HCl, pH 7.5, 250 mM sucrose) was added thereto at 10 μL/well (containing 10 μg of the protein). An enzyme reaction solution containing [^14C]stearoyl-CoA (American Radiolabeled Chemicals, Inc.) diluted into […] using 9 mM NADH (Sigma-Aldrich Corp.) was further added thereto at 10 μL/well. 30 minutes thereafter, 2.5 N NaOH was added thereto at 10 μL/well. After the completion of the addition, the deep well block was provided with a plate seal and then left standing overnight in a heat sterilizer set to 55° C. Subsequently to the standing, fatty acid extraction from the sample was carried out in accordance with the Bligh & Dyer method. Specifically, 200 μL of a formic acid:methanol:chloroform (1:6:3) solution was added to the sample thus left standing, and then, the mixture was stirred while the single-layer state was maintained. Further, 120 μL of pure water was added to the mixture to separate it into two layers. After the separation, a 10 μL aliquot was separated from the lower layer, spotted on a reverse-phase TLC plate (RP-18, 1154230001, Merck KGaA), and developed with an acetonitrile:pure water:acetic acid (95:4.5:0.5) solution. After drying, the TLC plate was transferred to Imaging Plate (Fuji Photo Film) for 5 hours or longer. Detection was carried out using FLA7000 (GE Healthcare Japan Corp.), and the obtained spot images were digitalized using ImageQuant TL (GE Healthcare Japan Corp.) to determine the rate of inhibition of SCD activity (%).

Test [2] addresses T2, SCD (Homo sapiens, UniProt O00767).
T2 construct: HCT116 (ATCC (American Type Culture Collection)) was inoculated at 1×10^5 cells/well to a 96-well plate; host or cells: HCT116
T2 sequence (O00767 1-359): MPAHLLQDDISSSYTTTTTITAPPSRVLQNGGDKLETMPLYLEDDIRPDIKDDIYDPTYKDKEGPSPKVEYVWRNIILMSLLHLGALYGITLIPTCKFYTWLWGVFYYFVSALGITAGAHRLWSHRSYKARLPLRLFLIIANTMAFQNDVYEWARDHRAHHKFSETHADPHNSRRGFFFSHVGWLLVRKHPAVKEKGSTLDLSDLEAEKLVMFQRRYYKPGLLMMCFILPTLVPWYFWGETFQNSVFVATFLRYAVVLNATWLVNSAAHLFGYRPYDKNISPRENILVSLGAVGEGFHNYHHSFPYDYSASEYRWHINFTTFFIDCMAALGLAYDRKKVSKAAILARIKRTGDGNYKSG
Briefly: Measurement of SCD inhibitory activity using human large intestine cancer cell line (HCT116 cell). In kind it is cell-based. As to conditions: HCT-116; 1 μM compound; HCT116 cells; [14C]stearic acid, 3 hours; read-out: Rate of inhibition of SCD activity at compound concentration of 1 μM. As for the experimental part:
Measurement of SCD Inhibitory Activity Using Human Large Intestine Cancer Cell Line (HCT116 Cell)
HCT116 (ATCC (American Type Culture Collection)) was inoculated at 1×10^5 cells/well to a 96-well plate and cultured overnight in DMEM (Dulbecco's modified Eagle medium) containing 10% FBS (fetal bovine serum) (AusGeneX PTY LTD.). After the culture, each well was washed twice with phosphate-buffered saline (PBS) (200 μL). Then, a reaction medium (DMEM, penicillin/streptomycin, 0.3% BSA) containing 1.5 μM of the test compound was added thereto at 40 μL/well, and the plate was left standing for 15 minutes in a CO2 incubator (37° C.). A reaction medium containing 0.1 μCi of [^14C]stearic acid was added at 20 μL/well to the plate thus left standing, and the plate was left standing for 3 hours in a CO2 incubator (37° C.). Each well of the plate thus left standing was washed twice with 200 μL of PBS. Then, 2.5 N NaOH was added thereto at 20 μL/well, and the plate was provided with a plate seal and then incubated overnight in a heat sterilizer set to 55° C. A formic acid:methanol:chloroform (1:16:4) solution was added at 200 μL/well to the plate thus left standing. Further, the mixture in each well was separated into two layer by the addition of 200 μL of pure water. After the separation, a 10 μL aliquot was separated from the lower layer, spotted on a reverse-phase TLC plate (RP-18, 1154230001, Merck KGaA), and developed with an acetonitrile:pure water:acetic acid (95:4.5:0.5) solution. After drying, the TLC plate was transferred to Imaging Plate (Fuji Photo Film) for 5 hours or longer. Detection was carried out using FLA7000 (GE Healthcare Japan Corp.), and the obtained spot images were digitalized using ImageQuant TL (GE Healthcare Japan Corp.) to determine the rate of inhibition of SCD activity (%).

With `N#CC1(c2ccc(S(F)(F)(F)(F)F)cc2)CCN(c2ccc(-c3nnc(CO)o3)nn2)CC1` [Example 58, 1-(6-(5-(Hydroxymethyl)-1,3,4-oxadiazol-2-yl)pyridazin-3-yl)-4-(4-(pentafluorosulfanyl)phenyl)piperidine-4-carbonitrile], the inhibition at 1 µM was 92% in test [1] and 97% in test [2].

With `OCc1noc(-c2ccc(N3CCC(c4ccc(C(F)(F)F)cc4)(C(F)(F)F)CC3)nn2)n1` [Example 82, (5-(6-(4-(Trifluoromethyl)-4-(4-(trifluoromethyl)phenyl)piperidin-1-yl)pyridazin-3-yl)-1,2,4-oxadiazol-3-yl)methanol], the inhibition at 1 µM in test [1] came out at 95%; in test [2], 99%.

For `OCc1nnc(-c2ccc(N3CCC(c4ccc(C(F)(F)F)cc4)(C(F)(F)F)CC3)nn2)o1` [Example 84, (5-(6-(4-(Trifluoromethyl)-4-(4-(trifluoromethyl)phenyl)piperidin-1-yl)pyridazin-3-yl)-1,3,4-oxadiazol-2-yl)methanol], the figures for the inhibition at 1 µM in test [1] and in test [2] were 93% and 99%, respectively.

As for `COC1(c2ccc(S(F)(F)(F)(F)F)cc2)CCN(c2ccc(-c3nnc(CO)o3)nn2)CC1` [Example 93, (5-(6-(4-Methoxy-4-(4-(pentafluorosulfanyl)phenyl)piperidin-1-yl)pyridazin-3-yl)-1,3,4-oxadiazol-2-yl)methanol], the inhibition at 1 µM is 94% in test [1] and 99% in test [2].

In the case of `N#CC1(c2ccc(S(F)(F)(F)(F)F)cc2)CCN(c2ccc(-c3nc(CO)ns3)nn2)CC1` [Example 108, 1-(6-(3-(Hydroxymethyl)-1,2,4-thiadiazol-5-yl)pyridazin-3-yl)-4-(4-(pentafluorosulfanyl)phenyl)piperidine-4-carbonitrile], the inhibition at 1 µM in test [1] worked out at 95%; in test [2], 100%.

Take `N#CC1(c2ccc(S(F)(F)(F)(F)F)cc2)CCN(c2ccc(-c3nnc(CO)s3)nn2)CC1` [Example 109, 1-(6-(5-(Hydroxymethyl)-1,3,4-thiadiazol-2-yl)pyridazin-3-yl)-4-(4-(pentafluorosulfanyl)phenyl)piperidine-4-carbonitrile]: the values for the inhibition at 1 µM in test [1] and in test [2] were 93% and 96%, respectively.

As for `COC1(c2ccc(S(F)(F)(F)(F)F)cc2)CCN(c2ccc(-c3nc(CO)ns3)nn2)CC1` [Example 110, (5-(6-(4-Methoxy-4-(4-(pentafluorosulfanyl)phenyl)piperidin-1-yl)pyridazin-3-yl)-1,2,4-thiadiazol-3-yl)methanol], the inhibition at 1 µM came to 94% in test [1] and 98% in test [2].

In the case of `COC1(c2ccc(S(F)(F)(F)(F)F)cc2)CCN(c2ccc(-c3nnc(CO)s3)nn2)CC1` [Example 111, (5-(6-(4-Methoxy-4-(4-(pentafluorosulfanyl)phenyl)piperidin-1-yl)pyridazin-3-yl)-1,3,4-thiadiazol-2-yl)methanol], the inhibition at 1 µM in test [1] amounted to 96%; in test [2] it was 101%.

Consider `OCc1nsc(-c2ccc(N3CCC(c4ccc(C(F)(F)F)cc4)(C(F)(F)F)CC3)nn2)n1` [Example 112, (5-(6-(4-(Trifluoromethyl)-4-(4-(trifluoromethyl)phenyl)piperidin-1-yl)pyridazin-3-yl)-1,2,4-thiadiazol-3-yl)methanol], for which the results for the inhibition at 1 µM in test [1] and in test [2] were 96% and 97%, respectively.

Take `OCc1nnc(-c2ccc(N3CCC(c4ccc(C(F)(F)F)cc4)(C(F)(F)F)CC3)nn2)s1` [Example 113, (5-(6-(4-(Trifluoromethyl)-4-(4-(trifluoromethyl)phenyl)piperidin-1-yl)pyridazin-3-yl)-1,3,4-thiadiazol-2-yl)methanol]: the inhibition at 1 µM in test [1] is 95%; in test [2], 99%.
